In the supplement of paper PMC10307832:

Tests used:
Test in all cases: relative viability (nuclei count vs DMSO), 5 days (fraction); higher = more cells survive
A-427 = tested on: A-427
How it was run: (§1)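 The day after seeding in 1536-well plates, lung cancer cell lines were treated by pin tool with a single drug, or with a fixed anchor-drug dose together with five library-drug doses (not always all listed) in √10 steps. After 5 days, a combined fix-and-stain solution (final 0.05% Triton X-100, 1% formaldehyde, 1 ug/ml Hoechst) was added. Nuclei counted on 4× images gave relative viability as treated counts over vehicle counts, reported as the median of duplicate plates.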

ABC-1 = tested on: ABC-1
How it was run: as §1

EMC-BAC-2 = tested on: EMC-BAC-2
How it was run: as §1

HARA = tested on: HARA
How it was run: as §1

HOP-62 = tested on: HOP-62
How it was run: as §1

LK-2 = tested on: LK-2
How it was run: as §1

LXF-289 = tested on: LXF-289
How it was run: as §1

NCI-H1792 = tested on: NCI-H1792
How it was run: as §1

NCI-H1944 = tested on: NCI-H1944
How it was run: as §1

NCI-H1993 = tested on: NCI-H1993
How it was run: as §1

NCI-H2009 = tested on: NCI-H2009
How it was run: as §1

NCI-H2170 = tested on: NCI-H2170
How it was run: as §1

NCI-H2228 = tested on: NCI-H2228
How it was run: as §1

NCI-H3122 = tested on: NCI-H3122
How it was run: as §1

NCI-H322M = tested on: NCI-H322M
How it was run: as §1

NCI-H522 = tested on: NCI-H522
How it was run: as §1

NCI-H596 = tested on: NCI-H596
How it was run: as §1

NCI-H727 = tested on: NCI-H727
How it was run: as §1

PC-3 [JPC-3] = tested on: PC-3 [JPC-3]
How it was run: as §1

SK-MES-1 = tested on: SK-MES-1
How it was run: as §1

SW 1573 = tested on: SW 1573
How it was run: as §1

SW 900 = tested on: SW 900
How it was run: as §1

COc1cc2nccc(Oc3ccc(NC(=O)Nc4cc(C)on4)c(Cl)c3)c2cc1OC [Tivozanib] + N=C(N)NC(=N)NCCc1ccccc1 [Phenformin] (partner 250 µM)
relative viability (A-427; first compound 0.005 µM): 0.337
relative viability (A-427; first compound 0.01581 µM): 0.308
relative viability (A-427; first compound 0.05 µM): 0.363
relative viability (A-427; first compound 0.1581 µM): 0.315
relative viability (A-427; first compound 0.5 µM): 0.241
relative viability (ABC-1; first compound 0.005 µM): 0.236
relative viability (ABC-1; first compound 0.01581 µM): 0.246
relative viability (ABC-1; first compound 0.05 µM): 0.268
relative viability (ABC-1; first compound 0.1581 µM): 0.201
relative viability (ABC-1; first compound 0.5 µM): 0.24
relative viability (EMC-BAC-2; first compound 0.005 µM): 0.48
relative viability (EMC-BAC-2; first compound 0.01581 µM): 0.519
relative viability (EMC-BAC-2; first compound 0.05 µM): 0.51
relative viability (EMC-BAC-2; first compound 0.1581 µM): 0.428
relative viability (EMC-BAC-2; first compound 0.5 µM): 0.441
relative viability (HARA; first compound 0.005 µM): 0.452
relative viability (HARA; first compound 0.01581 µM): 0.41
relative viability (HARA; first compound 0.05 µM): 0.424
relative viability (HARA; first compound 0.1581 µM): 0.364
relative viability (HARA; first compound 0.5 µM): 0.489
relative viability (HOP-62; first compound 0.005 µM): 0.611
relative viability (HOP-62; first compound 0.01581 µM): 0.626
relative viability (HOP-62; first compound 0.05 µM): 0.66
relative viability (HOP-62; first compound 0.1581 µM): 0.704
relative viability (HOP-62; first compound 0.5 µM): 0.714
relative viability (LK-2; first compound 0.005 µM): 0.459
relative viability (LK-2; first compound 0.01581 µM): 0.457
relative viability (LK-2; first compound 0.05 µM): 0.512
relative viability (LK-2; first compound 0.1581 µM): 0.283
relative viability (LK-2; first compound 0.5 µM): 0.199
relative viability (LXF-289; first compound 0.005 µM): 0.532
relative viability (LXF-289; first compound 0.01581 µM): 0.506
relative viability (LXF-289; first compound 0.05 µM): 0.514
relative viability (LXF-289; first compound 0.1581 µM): 0.561
relative viability (LXF-289; first compound 0.5 µM): 0.418
relative viability (NCI-H1792; first compound 0.005 µM): 0.316
relative viability (NCI-H1792; first compound 0.01581 µM): 0.394
relative viability (NCI-H1792; first compound 0.05 µM): 0.361
relative viability (NCI-H1792; first compound 0.5 µM): 0.388
relative viability (NCI-H1944; first compound 0.005 µM): 0.189
relative viability (NCI-H1944; first compound 0.01581 µM): 0.202
relative viability (NCI-H1944; first compound 0.05 µM): 0.208
relative viability (NCI-H1944; first compound 0.1581 µM): 0.21
relative viability (NCI-H1944; first compound 0.5 µM): 0.188
relative viability (NCI-H1993; first compound 0.005 µM): 0.503
relative viability (NCI-H1993; first compound 0.01581 µM): 0.507
relative viability (NCI-H1993; first compound 0.05 µM): 0.51
relative viability (NCI-H1993; first compound 0.1581 µM): 0.558
relative viability (NCI-H1993; first compound 0.5 µM): 0.52
relative viability (NCI-H2009; first compound 0.005 µM): 0.448
relative viability (NCI-H2009; first compound 0.01581 µM): 0.473
relative viability (NCI-H2009; first compound 0.05 µM): 0.453
relative viability (NCI-H2009; first compound 0.1581 µM): 0.478
relative viability (NCI-H2009; first compound 0.5 µM): 0.344
relative viability (NCI-H2170; first compound 0.005 µM): 0.413
relative viability (NCI-H2170; first compound 0.01581 µM): 0.42
relative viability (NCI-H2170; first compound 0.05 µM): 0.395
relative viability (NCI-H2170; first compound 0.1581 µM): 0.424
relative viability (NCI-H2170; first compound 0.5 µM): 0.421
relative viability (NCI-H2228; first compound 0.005 µM): 0.306
relative viability (NCI-H2228; first compound 0.01581 µM): 0.283
relative viability (NCI-H2228; first compound 0.05 µM): 0.325
relative viability (NCI-H2228; first compound 0.1581 µM): 0.288
relative viability (NCI-H2228; first compound 0.5 µM): 0.406
relative viability (NCI-H3122; first compound 0.005 µM): 0.376
relative viability (NCI-H3122; first compound 0.01581 µM): 0.419
relative viability (NCI-H3122; first compound 0.05 µM): 0.383
relative viability (NCI-H3122; first compound 0.1581 µM): 0.361
relative viability (NCI-H3122; first compound 0.5 µM): 0.344
relative viability (NCI-H322M; first compound 0.005 µM): 0.721
relative viability (NCI-H322M; first compound 0.01581 µM): 0.82
relative viability (NCI-H322M; first compound 0.05 µM): 0.776
relative viability (NCI-H322M; first compound 0.1581 µM): 0.689
relative viability (NCI-H322M; first compound 0.5 µM): 0.655
relative viability (NCI-H522; first compound 0.005 µM): 0.595
relative viability (NCI-H522; first compound 0.01581 µM): 0.73
relative viability (NCI-H522; first compound 0.05 µM): 0.593
relative viability (NCI-H522; first compound 0.1581 µM): 0.619
relative viability (NCI-H522; first compound 0.5 µM): 0.705
relative viability (NCI-H596; first compound 0.005 µM): 0.744
relative viability (NCI-H596; first compound 0.01581 µM): 0.699
relative viability (NCI-H596; first compound 0.05 µM): 0.777
relative viability (NCI-H596; first compound 0.5 µM): 0.798
relative viability (NCI-H727; first compound 0.005 µM): 0.664
relative viability (NCI-H727; first compound 0.01581 µM): 0.489
relative viability (NCI-H727; first compound 0.05 µM): 0.439
relative viability (NCI-H727; first compound 0.1581 µM): 0.403
relative viability (NCI-H727; first compound 0.5 µM): 0.558
relative viability (PC-3 [JPC-3]; first compound 0.005 µM): 0.477
relative viability (PC-3 [JPC-3]; first compound 0.01581 µM): 0.468
relative viability (PC-3 [JPC-3]; first compound 0.05 µM): 0.516
relative viability (PC-3 [JPC-3]; first compound 0.1581 µM): 0.427
relative viability (PC-3 [JPC-3]; first compound 0.5 µM): 0.481
relative viability (SK-MES-1; first compound 0.005 µM): 0.622
relative viability (SK-MES-1; first compound 0.01581 µM): 0.676
relative viability (SK-MES-1; first compound 0.05 µM): 0.71
relative viability (SK-MES-1; first compound 0.1581 µM): 0.688
relative viability (SK-MES-1; first compound 0.5 µM): 0.602
relative viability (SW 1573; first compound 0.005 µM): 0.361
relative viability (SW 1573; first compound 0.01581 µM): 0.362
relative viability (SW 1573; first compound 0.05 µM): 0.369
relative viability (SW 1573; first compound 0.1581 µM): 0.306
relative viability (SW 1573; first compound 0.5 µM): 0.386
relative viability (SW 900; first compound 0.005 µM): 0.554
relative viability (SW 900; first compound 0.01581 µM): 0.71
relative viability (SW 900; first compound 0.05 µM): 0.731
relative viability (SW 900; first compound 0.1581 µM): 0.492
relative viability (SW 900; first compound 0.5 µM): 0.524
